# According to patent US20210198277A1, “AMINE-SUBSTITUTED ARYL OR HETEROARYL COMPOUNDS” (Epizyme, Inc., priority 2016, published 2021):
# Target: T1, EHMT2 (Homo sapiens, UniProt Q96KQ7)
# T1 construct: host or cells: MDA-MB-231
# T1 sequence (Q96KQ7 1-1210): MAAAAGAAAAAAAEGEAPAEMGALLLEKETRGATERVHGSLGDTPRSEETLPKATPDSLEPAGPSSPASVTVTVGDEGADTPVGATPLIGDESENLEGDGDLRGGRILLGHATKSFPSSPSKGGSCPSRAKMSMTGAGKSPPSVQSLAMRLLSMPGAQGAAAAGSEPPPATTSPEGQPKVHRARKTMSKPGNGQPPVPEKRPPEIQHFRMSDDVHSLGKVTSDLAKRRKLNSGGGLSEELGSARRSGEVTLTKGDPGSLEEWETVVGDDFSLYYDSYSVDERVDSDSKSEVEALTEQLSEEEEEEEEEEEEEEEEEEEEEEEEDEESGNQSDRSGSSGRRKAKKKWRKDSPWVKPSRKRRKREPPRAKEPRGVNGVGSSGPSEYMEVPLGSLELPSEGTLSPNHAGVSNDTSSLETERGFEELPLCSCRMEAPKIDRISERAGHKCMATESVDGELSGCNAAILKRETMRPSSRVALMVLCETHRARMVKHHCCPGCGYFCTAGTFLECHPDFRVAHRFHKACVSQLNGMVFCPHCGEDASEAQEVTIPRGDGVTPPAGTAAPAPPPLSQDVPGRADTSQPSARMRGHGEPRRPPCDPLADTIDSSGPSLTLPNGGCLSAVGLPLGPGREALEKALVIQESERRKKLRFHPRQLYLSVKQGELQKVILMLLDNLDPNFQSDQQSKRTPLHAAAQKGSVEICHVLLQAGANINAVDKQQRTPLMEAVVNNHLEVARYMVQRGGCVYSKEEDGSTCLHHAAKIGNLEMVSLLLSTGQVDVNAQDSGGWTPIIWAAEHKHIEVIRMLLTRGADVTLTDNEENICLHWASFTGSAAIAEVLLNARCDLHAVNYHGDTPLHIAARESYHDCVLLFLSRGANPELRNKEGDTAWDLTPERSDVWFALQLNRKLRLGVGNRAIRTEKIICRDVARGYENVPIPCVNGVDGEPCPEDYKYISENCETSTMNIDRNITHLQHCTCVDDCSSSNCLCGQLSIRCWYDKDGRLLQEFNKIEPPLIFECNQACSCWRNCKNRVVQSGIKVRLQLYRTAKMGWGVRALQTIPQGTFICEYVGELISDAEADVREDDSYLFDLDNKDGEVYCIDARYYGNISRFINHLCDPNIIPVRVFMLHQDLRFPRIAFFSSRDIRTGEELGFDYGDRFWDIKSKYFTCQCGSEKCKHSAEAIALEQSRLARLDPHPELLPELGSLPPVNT
# Experiment: MDA-MB-231 H3K9me2 in-cell Western assay (EHMT2 ICW)
# Assay type: cell-based
# Conditions: Table II; MDA-MB-231 H3K9me2 in-cell Western; read-out: EHMT2 ICW (IC50 μM)
# Outline: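 IC50 values came from a variable-slope four-parameter fit on triplicate wells, using % inhibition from the 800/700 nm infrared signal ratio (anti-H3K9me2 versus DRAQ5 DNA stain). Before fixation and immunostaining, MDA-MB-231 cells, 3,000 per well, were exposed to compound for 48 h at 37 °C.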
row,SMILES,IC50
1,CNc1nc(Nc2ccc(OC)c(OCCCN3CCCC3)c2)ncc1C(F)(F)F [Compound 234],> 10 µM
2,CNc1ncc(C(F)(F)F)c(Nc2ccc(OC)c(OCCCN3CCCC3)c2)n1 [Compound 235],> 10 µM
3,CNc1nc(Nc2ccc(OC)c(OCCCN3CCCC3)c2)nc(C)c1F [Compound 236],0.1 to 1 µM
4,CNc1ccnc(Nc2ccc(OC)c(OCCN3CCOCC3)c2)n1 [Compound 237],> 10 µM
5,CNc1ccnc(Nc2ccc3c(c2)N(C(=O)CCN(C)C)CC3)n1 [Compound 239],> 10 µM
6,CCc1cc(NC)nc(Nc2ccc(OC)c(OCCCN3CCCC3)c2)n1 [Compound 240],0.1 to 1 µM
7,COc1ccc(Nc2nccc(CNC3CCOCC3)n2)cc1OCCCNc1ccccc1 [Compound 241],> 10 µM
8,COc1ccc(Nc2cnnc(NCC3CCN(C(C)=O)CC3)c2)cc1OCCCN1CCCC1 [Compound 242],> 10 µM
9,COc1ccc(Nc2nccc(NCC3CCOCC3)n2)cc1OC1CC2(C1)CN(C)C2 [Compound 243],> 10 µM
10,CNc1ccnc(Nc2ccc(F)c(OCCCN3CCCC3)c2)n1 [Compound 244],> 10 µM
11,COc1ccc(Nc2nccc(N)n2)cc1OCCCN1CCCC1 [Compound 245],1 to 10 µM
12,CNc1cnnc(Nc2ccc(OC)c(OCCCN3CCCC3)c2)c1 [Compound 246],> 10 µM
13,CNc1cncc(Nc2ccc(OC)c(OCCCN3CCCC3)c2)n1 [Compound 247],1 to 10 µM
14,CNc1cc(Nc2cc(OCCCN3CCCC3)c(OC)cn2)ccn1 [Compound 248],0.1 to 1 µM
15,COc1ccc(Nc2nccc3[nH]ncc23)cc1OCCCN1CCCC1 [Compound 249],> 10 µM
16,COc1ccc(Nc2ccnc3[nH]ccc23)cc1OCCCN1CCCC1 [Compound 250],> 10 µM
17,CC(C)Nc1ccnc(Nc2cccc(OCCCN3CC[C@@H](F)C3)c2)n1 [Compound 251],> 10 µM
18,CNc1ccnc(Nc2cccc(OC[C@H](O)CN3CCCC3)c2)n1 [Compound 252],1 to 10 µM
19,CNc1ccnc(Nc2cccc(OC[C@@H](O)CN3CCCC3)c2)n1 [Compound 253],> 10 µM
